This is an account of results in patent US20100204246A1, “5-AMINOPYRAZOL-3-YL-3H-IMIDAZO (4,5-B) PYRIDINE DERIVATIVES AND THEIR USE FOR THE TREATMENT OF CANCER” (AstraZeneca AB, priority 2007, published 2010).

One assay deals with T1, human Trk A kinase (Homo sapiens, UniProt P04629).
T1 construct: HIS; made in house; host or cells: SF9 cells
T1 sequence (P04629 442-796): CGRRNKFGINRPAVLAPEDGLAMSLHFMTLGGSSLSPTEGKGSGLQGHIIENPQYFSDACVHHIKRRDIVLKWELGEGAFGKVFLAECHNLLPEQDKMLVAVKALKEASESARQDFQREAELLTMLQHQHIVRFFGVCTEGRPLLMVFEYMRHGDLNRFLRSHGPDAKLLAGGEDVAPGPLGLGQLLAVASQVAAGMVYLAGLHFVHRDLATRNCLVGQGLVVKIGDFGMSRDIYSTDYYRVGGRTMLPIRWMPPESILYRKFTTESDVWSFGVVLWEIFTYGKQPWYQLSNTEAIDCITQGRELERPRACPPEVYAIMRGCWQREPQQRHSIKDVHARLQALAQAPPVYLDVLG
In words: Trk A kinase assay (Alphascreen, phosphorylation of PolyEY-biotin substrate). The assay is classed as biochemical. The conditions noted are these: 0.838 ng/ml Trk A, 70 μM ATP, 20 minutes, room temperature; read-out: IC50 (Trk inhibitory activity). As for the experimental part:
Trk A kinase activity was determined by measuring the kinase's ability to phosphorylate synthetic tyrosine residues within a generic polypeptide substrate using an Amplified Luminescent Proximity Assay (Alphascreen) technology (PerkinElmer, 549 Albany Street, Boston, Mass.).
To measure Trk A kinase activity, the intracellular domain of a HIS-tagged human Trk A kinase (amino acids 442-796 of Trk A, Swiss-Prot Primary Accession Number P04629) may be expressed in SF9 cells and purified using standard nickel column chromatography. After incubation of the kinase with a biotinylated substrate and adenosine triphosphate (ATP) for 20 minutes at room temperature, the kinase reaction may be stopped by the addition of 30 mM ethylenediaminetetraacetic acid (EDTA). The reaction may be performed in 384 well microtitre plates and the reaction products may be detected with the addition of strepavidin coated Donor Beads and phosphotyrosine-specific antibodies coated Acceptor Beads using the EnVision Multilabel Plate Reader after an overnight incubation at room temperature.
As for `CC(C)Oc1cc(Nc2nc3c(cc2F)ncn3[C@@H](C)c2ccc(F)cn2)n[nH]1` [Example 4, 6-Fluoro-3-[(1S)-1-(5-fluoropyridin-2-yl)-ethyl]-N-(5-isopropoxy-1H-pyrazol-3-yl)-3H-imidazo[4,5-b]pyridin-5-amine], the IC50 – broadly, the concentration at which inhibition is half-maximal – was determined as 3 nM. As to `Cc1cc(Nc2nc3c(cc2F)[nH]c(=O)n3[C@@H](C)c2ncc(F)cn2)n[nH]1` [Example 14, 6-Fluoro-3-[(1S)-1-(5-fluoropyrimidin-2-yl)ethyl]-5-[(5-methyl-1H-pyrazol-3-yl)amino]-1,3-dihydro-2H-imidazo[4,5-b]pyridin-2-one], the half-inhibitory concentration (IC50) was found to be 3300 nM. In the case of `CCOc1cc(Nc2nc3c(cc2F)ncn3[C@@H](CO)c2ccc(F)cn2)n[nH]1` [Example 10, (2R)-2-{5-[(5-Ethoxy-1H-pyrazol-3-yl)-amino]-6-fluoro-3H-imidazo[4,5-b]pyridin-3-yl}-2-(5-fluoropyridin-2-yl)-ethanol], the IC50 was 3 nM. Regarding `Cc1cc(Nc2nc3c(cc2F)nc(C)n3Cc2ncc(F)cc2F)n[nH]1` [Example 18, 3-[(3,5-Difluoropyridin-2-yl)methyl]-6-fluoro-2-methyl-N-(5-methyl-1H-pyrazol-3-yl)-3H-imidazo[4,5-b]pyridin-5-amine], the IC50 was 393 nM. Regarding `Cc1cc(Nc2nc3c(cc2F)ncn3[C@@H](C)c2ccc(F)cn2)n[nH]1` [Example 13, 6-Fluoro-3-[(1S)-1-(5-fluoropyridin-2-yl)ethyl]-N-(5-methyl-1H-pyrazol-3-yl)-3H-imidazo[4,5-b]pyridin-5-amine], the IC50 is 21 nM. As for `COc1cc(Nc2nc3c(cc2F)ncn3[C@@H](C)c2ncc(F)cn2)n[nH]1` [Example 7, 6-Fluoro-3-[(1S)-1-(5-fluoropyrimidin-2-yl)-ethyl]-N-(5-methoxy-1H-pyrazol-3-yl)-3H-imidazo[4,5-b]pyridin-5-amine], the 50% inhibitory concentration (IC50) is 3 nM. `CCOc1cc(Nc2nc3c(cc2F)ncn3[C@@H](C)c2ccc(F)cn2)n[nH]1` [Example 3, N-(5-Ethoxy-1H-pyrazol-3-yl)-6-fluoro-3-[(1S)-1-(5-fluoropyridin-2-yl)-ethyl]-3H-imidazo[4,5-b]pyridin-5-amine]: the half-maximal inhibitory concentration (IC50) amounted to 3 nM. Take `Cc1cc(Nc2nc3c(cc2F)nc(C)n3[C@@H](C)c2ncc(F)cn2)n[nH]1` [Example 15, 6-Fluoro-3-[(1S)-1-(5-fluoropyrimidin-2-yl)ethyl]-2-methyl-N-(5-methyl-1H-pyrazol-3-yl)-3H-imidazo[4,5-b]pyridin-5-amine]: the 50% inhibitory concentration (IC50) amounted to 9350 nM. As for `C[C@@H](c1ccc(F)cn1)n1cnc2ccc(Nc3cc(C4CC4)[nH]n3)nc21` [Example 2, N-(5-Cyclopropyl-1H-pyrazol-3-yl)-3-[(1S)-1-(5-fluoropyridin-2-yl)ethyl]-3H-imidazo[4,5-b]pyridin-5-amine], the IC50 was 23 nM.

For the compound `CC(C)Oc1cc(Nc2nc3c(cc2F)ncn3[C@@H](CO)c2ccc(F)cn2)n[nH]1` [Example 8, (2R)-2-{6-Fluoro-5-[(5-isopropoxy-1H-pyrazol-3-yl)-amino]-3H-imidazo[4,5-b]pyridine-3-yl}-2-(5-fluoropyridin-2-yl)-ethanol], the 50% inhibitory concentration (IC50) amounted to 3 nM. Turning to `Cc1cc(Nc2nc3c(cc2F)ncn3[C@@H](CO)c2ccc(F)cn2)n[nH]1` [Example 16, (2R)-2-{6-Fluoro-5-[(5-methyl-1H-pyrazol-3-yl)amino]-3H-imidazo[4,5-b]pyridin-3-yl}-2-(5-fluoropyridin-2-yl)ethanol], the IC50 is 73 nM. Still for that read-out and setting: to `COc1cc(Nc2nc3c(cc2F)ncn3[C@@H](C)c2ccc(F)cn2)n[nH]1` [Example 11, 6-Fluoro-3-[(1S)-1-(5-fluoropyridin-2-yl)-ethyl]-N-(5-methoxy-1H-pyrazol-3-yl)-3H-imidazol-[4,5-b]pyridin-5-amine] belongs 3 nM. On to `CC(C)Oc1cc(Nc2nc3c(cc2F)ncn3[C@@H](C)c2ncc(F)cn2)n[nH]1` [Example 6, 6-Fluoro-3-[(1S)-1-(5-fluoropyrimidin-2-yl)-ethyl]-N-(5-isopropoxy-1H-pyrazol-3-yl)-3H-imidazo[4,5-b]pyridin-5-amine], for which the concentration for half-maximal inhibition (IC50) was 3 nM. Turning to `C[C@@H](c1ccc(F)cn1)n1cnc2cc(F)c(Nc3cc(C4CC4)[nH]n3)nc21` [Example 1, N-(5-Cyclopropyl-1H-pyrazol-3-yl)-6-fluoro-3-[(1S)-1-(5-fluoropyridin-2-yl)-ethyl]-3H-imidazo[4,5-b]-pyridin-5-amine], the concentration for half-maximal inhibition (IC50) worked out at 3 nM. Turning to `C[C@@H](c1ncc(F)cn1)n1cnc2cc(F)c(Nc3cc(C4CC4)[nH]n3)nc21` [Example 5, N-(5-Cyclopropyl-1H-pyrazol-3-yl)-6-fluoro-3-[(1S)-1-(5-fluoropyrimidin-2-yl)-ethyl]-3H-imidazo[4,5-b]pyridin-5-amine], the IC50 stood at 3 nM. In the case of `Cc1cc(Nc2nc3c(cc2F)ncn3Cc2ncc(F)cc2F)n[nH]1` [Example 17, 3-[(3,5-Difluoropyridin-2-yl)methyl]-6-fluoro-N-(5-methyl-1H-pyrazol-3-yl)-3H-imidazo[4,5-b]pyridin-5-amine], the IC50 was determined as 283 nM. For the compound `COc1cc(Nc2nc3c(cc2F)ncn3[C@@H](CO)c2ccc(F)cn2)n[nH]1` [Example 9, (2R)-2-{6-Fluoro-5-[(5-methoxy-1H-pyrazol-3-yl)-amino]-3H-imidazo[4,5-b]pyridin-3-yl}-2-(5-fluoropyridin-2-yl)-ethanol], the IC50 was determined as 3 nM.

With `Cc1cc(Nc2nc3c(cc2F)ncn3[C@@H](C)c2ncc(F)cn2)n[nH]1` [Example 12, 6-Fluoro-3-[(1S)-1-(5-fluoropyrimidin-2-yl)ethyl]-N-(5-methy 1-1H-pyrazol-3-yl)-3H-imidazo[4,5-b]pyridin-5-amine], the half-maximal inhibitory concentration (IC50) amounted to 66 nM.

In the next assay the target is T2, human JAK2 (Homo sapiens, UniProt O60674).
T2 construct: human JAK2, amino acids 808-end; His6 (C); purchased Upstate Biotechnology; host or cells: baculovirus in Sf21 cells
T2 sequence (O60674 808-1132 limits assumed): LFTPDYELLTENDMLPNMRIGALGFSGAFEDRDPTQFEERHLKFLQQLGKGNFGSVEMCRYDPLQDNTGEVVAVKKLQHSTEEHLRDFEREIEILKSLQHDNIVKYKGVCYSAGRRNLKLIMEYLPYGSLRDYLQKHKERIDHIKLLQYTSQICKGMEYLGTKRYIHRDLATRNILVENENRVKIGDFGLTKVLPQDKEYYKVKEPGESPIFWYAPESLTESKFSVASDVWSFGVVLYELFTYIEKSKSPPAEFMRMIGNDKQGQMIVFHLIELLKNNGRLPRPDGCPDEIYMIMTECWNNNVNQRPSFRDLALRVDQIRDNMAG
In words: JAK2 kinase assay (Alphascreen, phosphorylation of biotinylated peptide substrate). The assay is classed as biochemical. The conditions noted are these: 150pM JAK2 enzyme, 30 μM ATP, 60 minutes, room temperature; read-out: IC50 (JAK inhibitory activity). As to the method:
JAK2 kinase activity was determined by measuring the kinase's ability to phosphorylate synthetic tyrosine residues within a generic polypeptide substrate using an Amplified Luminescent Proximity Assay (Alphascreen) technology (PerkinElmer, 549 Albany Street, Boston, Mass.).
To measure JAK2 kinase activity, a commercially available purified enzyme may be used. The enzyme may be a C-terminal His6-tagged, recombinant, human JAK2, amino acids 808-end, (Genbank Accession number NM 004972) expressed by baculovirus in Sf21 cells (Upstate Biotechnology MA). After incubation of the kinase with a biotinylated substrate and adenosine triphosphate (ATP) for 60 minutes at room temperature, the kinase reaction may be stopped by the addition of 30 mM ethylenediaminetetraacetic acid (EDTA). The reaction may be performed in 384 well microtitre plates and the reaction products may be detected with the addition of streptavidin coated Donor Beads and phosphotyrosine-specific antibodies coated Acceptor Beads using the EnVision Multilabel Plate Reader after an overnight incubation at room temperature.
In general terms: In Alpha technology, singlet oxygen from a donor bead excites a nearby acceptor bead.
As for `CCOc1cc(Nc2nc3c(cc2F)ncn3[C@@H](C)c2ccc(F)cn2)n[nH]1` [Example 3, N-(5-Ethoxy-1H-pyrazol-3-yl)-6-fluoro-3-[(1S)-1-(5-fluoropyridin-2-yl)-ethyl]-3H-imidazo[4,5-b]pyridin-5-amine], the IC50 worked out at 11 nM.
